From ChEMBL document CHEMBL1201862, “PubChem BioAssay data set” (2004)
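96-well plates; 48 h exposure; 5 concentrations. Endpoints by linear interpolation between flanking doses. Not reached: highest tested concentration assigned. GI50: concentration for 50% inhibition of growth.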 Active and inactive are the calls of the source. No stated cut-off is given here; in the data, active = GI50 up to about 1.1 µM and inactive = higher.

Columns and labels:
Assay in all cases: inhibition of tumour cell growth, NCI panel, 48 h
[1] = test system: 786-0
[2] = test system: DU-145
[3] = test system: EKVX
[4] = test system: HCC 2998
[5] = test system: HOP-62
[6] = test system: HOP-92
[7] = test system: K562
[8] = test system: KM12
[9] = test system: LOX IMVI
[10] = test system: MDA-MB-231
[11] = test system: NCI-H23
[12] = test system: OVCAR-4
[13] = test system: PC-3
[14] = test system: SF-295
[15] = test system: SR
[16] = test system: U-251
[17] = test system: BT-549
[18] = test system: SNB-19

Measured: GI50

CC1(C)CC2C(C1=O)C1(C)CCCC2(C)C1=O (stereo not given)
inactive: [1] > 100 µM | [2] > 100 µM | [3] > 100 µM | [4] > 100 µM | [5] > 100 µM | [6] > 100 µM | [7] > 100 µM | [8] > 100 µM | [9] > 100 µM | [10] > 100 µM | [11] > 100 µM | [12] > 100 µM | [13] > 100 µM | [14] > 100 µM | [15] > 100 µM | [16] > 100 µM

Cc1ccc(-n2nnc(C(N)=O)c2O)cc1
inactive: [1] > 100 µM | [17] > 100 µM | [2] > 100 µM | [3] > 100 µM | [4] > 100 µM | [5] > 100 µM | [7] > 100 µM | [8] > 100 µM | [10] > 100 µM | [11] > 100 µM | [12] > 100 µM | [13] > 100 µM | [14] > 100 µM | [18] > 100 µM | [16] > 100 µM

S=C(Nc1ccc2c(c1)Cc1ccccc1-2)Nc1ccc2c(c1)Cc1ccccc1-2
inactive: [1] > 100 µM | [17] > 100 µM | [2] > 100 µM | [3] > 100 µM | [4] > 100 µM | [5] > 100 µM | [6] 80.7 µM | [7] 19.1 µM | [8] > 100 µM | [9] > 100 µM | [10] > 100 µM | [11] > 100 µM | [12] > 100 µM | [13] > 100 µM | [14] > 100 µM | [18] > 100 µM | [16] > 100 µM

CC1(C)O[C@H](C(=O)O)[C@@H](C(=O)O)O1
inactive: [1] > 100 µM | [2] > 100 µM | [3] > 100 µM | [4] > 100 µM | [5] > 100 µM | [6] > 100 µM | [7] > 100 µM | [8] > 100 µM | [9] > 100 µM | [10] > 100 µM | [12] > 100 µM | [13] > 100 µM | [14] > 100 µM | [18] > 100 µM | [15] > 100 µM | [16] > 100 µM

N#CC1(C#N)C2CCCCC23OC(=N)C1(C#N)C(c1ccccc1)O3 (stereo not given)
inactive: [1] 14.6 µM | [17] 16.8 µM | [2] 20.5 µM | [3] 23.5 µM | [4] 14.2 µM | [6] 15.5 µM | [7] 7.11 µM | [8] 8.49 µM | [9] 17.3 µM | [10] 16.4 µM | [11] 30.5 µM | [13] 21.4 µM | [14] 69 µM | [18] 45.9 µM | [16] 17.6 µM

CC(=O)C1C(=O)C(=O)N(c2ccc([N+](=O)[O-])cc2[N+](=O)[O-])C1=O (stereo not given)
inactive: [1] > 100 µM | [17] > 100 µM | [2] > 100 µM | [3] 56.5 µM | [4] > 100 µM | [5] > 100 µM | [6] > 100 µM | [8] > 100 µM | [9] > 100 µM | [10] > 100 µM | [11] > 100 µM | [12] > 100 µM | [13] > 100 µM | [14] > 100 µM | [18] > 100 µM | [16] > 100 µM

N#Cc1c(N2CCCC2)nsc1Nc1ccccc1
inactive: [1] > 100 µM | [2] > 100 µM | [3] > 100 µM | [4] > 100 µM | [6] > 100 µM | [7] > 100 µM | [8] > 100 µM | [9] > 100 µM | [10] > 100 µM | [11] > 100 µM | [12] > 100 µM | [13] > 100 µM | [14] > 100 µM | [18] > 100 µM | [15] > 100 µM

CN1CCN(C(=S)N(C(=O)c2ccc(Cl)cc2)C2CCCCC2)CC1
inactive: [1] > 100 µM | [17] > 100 µM | [2] > 100 µM | [4] > 100 µM | [6] > 100 µM | [7] 51.3 µM | [8] > 100 µM | [9] > 100 µM | [10] > 100 µM | [11] > 100 µM | [12] > 100 µM | [14] > 100 µM | [18] > 100 µM | [15] 58.9 µM | [16] > 100 µM
